Assay results taken from PubChem BioAssay AID743235 (The Scripps Research Institute Molecular Screening Center, 2013).
Active and inactive are the calls of the source. The rule behind the calls is not given here.

System: Counterscreen cells for TAAR1 agonist assay, fluorescence
Assay: TAAR1 agonist activity of antagonist hits, late-stage follow-up, counter-screen for TAAR1 antagonist project, cell-based, fluorescence, human (AID 743235)

Compound | EC50
COc1cccc(-c2nn(-c3ccccc3)cc2C(=O)Nc2nccs2)c1 | > 29.9 µM (inactive)
Cc1cccc(C(C#N)c2nc3ccccc3nc2C(F)(F)F)c1 (stereo unspecified) | > 29.9 µM (inactive)
O=C(NCCn1cc(SCc2ccccc2F)c2ccccc21)c1c(F)cccc1F | > 29.9 µM (inactive)
COc1cc(NC(=O)c2cc3ccccc3o2)c(OC)cc1Cl | > 29.9 µM (inactive)
Cc1ccc(CSCC(=O)Nc2cc(S(=O)(=O)N3CCOCC3)ccc2OCC(F)(F)F)cc1 | > 29.9 µM (inactive)
CCOC(=O)C1CCCN(c2c(C(=O)c3ccccc3)cnc3ccc(OC)cc23)C1 (stereo unspecified) | 20.1 µM (inactive)
